Assays:
[1] = system: metabolism of CsA in rat liver microsomes (RLMs); assay: Inhibition of CsA metabolism in rat liver microsomes (RLMs); details: for Inhibitory rate on the metabolism of CsA: screen of 132 drugs, RLMs […], Tris-HCl, NADPH 1 mM, AM1 by UPLC-MS/MS; for Inhibitory effect on the metabolism of CsA (in words): RLMs, comparison of five antihypertension drugs (Figure 2C)
Description: (§1) The concentrations of CsA, its main metabolite AM1, and diazepam (IS) were detected by UPLC–MS/MS equipped with a triple quadrupole and electrospray ionization (ESI) source. […] Briefly, the analytes were separated on a UPLC BEH C18 column (2.1 mm × 50 mm, 1.7 μm particle size). […] Solvent A (0.1% formic acid) and solvent B (acetonitrile) were applied as the mobile phase, with a gradient elution at a flow rate of 0.4 ml/min and an injection volume of 4 μl.
(§2) Reduced nicotinamide adenine dinucleotide phosphate (NADPH) (1 mmol/L) was added into the mixture after preincubation at 37°C for 5 min to initiate the reaction. The mixture was incubated for another 40 min, then cooled at −80°C to suspend the reaction. Then, 400 μl of acetonitrile and 20 μl of diazepam (200 ng/ml) were added to the frozen mixture. The mixtures were vortexed for 2 min and centrifuged at 13,000 rpm for 10 min. Finally, 4 μl of the mixture was injected for UPLC-MS/MS analysis.
(§3) A 200 μl system was incubated with either RLMs or HLMs (at a concentration of 0.15 mg/ml) containing drugs, CsA, RLMs or HLMs (all at a concentration of 0.15 mg/ml), Tris-HCl buffer, and 10 μl of NADPH (1 mM). […] The rest of the operation was the same as already described.

[2] = Pharmacokinetics of CsA and AM1 in rats with or without nimodipine or nisoldipine; type: in vivo, Sprague–Dawley rats; details: male SD rats, plasma, UPLC-MS/MS, mean ± SD n = 6
Description: Sprague–Dawley male rats weighing 200–250 g were purchased from Shanghai Laboratory Animal Center (SLAC). After 2 weeks of laboratory adaptation, the rats were randomly divided into three groups with six rats in each group. […] All drugs were orally administered. […] The collected blood samples were centrifuged to obtain the plasma. Then, 150 μl of acetonitrile and 20 μl of diazepam (IS; 100 ng/ml) were added to 50 μl of plasma, mixed and vortexed for 2 min, centrifuged for 10 min, and 4 μl of the supernatant was used for UPLC-MS/MS injection analysis.
The pharmacokinetic parameters were evaluated by DAS 3.0.

[3] = Inhibition of CsA metabolism in rat liver microsomes (RLMs); details: SD
Description: as §1, §2, §3

[4] = system: metabolism of CsA in human liver microsomes (HLMs); CYP3A4; details: comparison of five antihypertension drugs (Figure 2D)
Description: as §1, §2, §3

[5] = metabolite after CsA 40 mg/kg oral + nimodipine 24 mg/kg oral
[6] = metabolite after CsA 40 mg/kg oral + nisoldipine 2 mg/kg oral
[7] = metabolite after CsA 40 mg/kg oral alone

## N#CC1(c2ccc(NC(=O)c3cccnc3NCc3ccncc3)cc2)CCCC1 [apatinib, Apatinib]
[1]
  Inhibitory rate on the metabolism of CsA: greater than 80%

## Cc1cccc(C)c1OCC(=O)N[C@@H](Cc1ccccc1)[C@@H](O)C[C@H](Cc1ccccc1)NC(=O)[C@H](C(C)C)N1CCCNC1=O [lopinavir, Lopinavir]
[1]
  Inhibitory rate on the metabolism of CsA: greater than 80%

## CC[C@@H]1NC(=O)[C@H]([C@H](O)[C@H](C)C/C=C/CO)N(C)C(=O)[C@H](C(C)C)N(C)C(=O)[C@H](CC(C)C)N(C)C(=O)[C@H](CC(C)C)N(C)C(=O)[C@@H](C)NC(=O)[C@H](C)NC(=O)[C@H](CC(C)C)N(C)C(=O)[C@H](C(C)C)NC(=O)[C@H](CC(C)C)N(C)C(=O)CN(C)C1=O [AM1, CsA M-17]
[2]; [5]
  AUC(0-t) of AM1: 3,291.60 ± 1,213.46 μg/L·h
  AUC(0-∞) of AM1: 3,504.89 ± 1,223.40 μg/L·h
  CLz/F of AM1: 12.42 ± 3.60 L/h/kg
  Cmax of AM1: 192.68 ± 69.42 µg/L
  Tmax of AM1: 7.00 ± 2.68 h
  Vz/F of AM1: 198.16 ± 99.97 L/kg
  t1/2z of AM1: 10.83 ± 3.52 h
[2]; [6]
  AUC(0-t) of AM1: 1,548.46 ± 482.43 μg/L·h
  AUC(0-∞) of AM1: 2,128.73 ± 887.82 μg/L·h
  CLz/F of AM1: 21.26 ± 7.31 L/h/kg
  Cmax of AM1: 110.32 ± 19.52 µg/L
  Tmax of AM1: 6.17 ± 1.60 h
  Vz/F of AM1: 494.23 ± 201.15 L/kg
  t1/2z of AM1: 19.58 ± 13.45 h
[2]; [7]
  AUC(0-t) of AM1: 2,275.37 ± 620.96 μg/L·h
  AUC(0-∞) of AM1: 2,542.74 ± 779.21 μg/L·h
  CLz/F of AM1: 17.03 ± 5.31 L/h/kg
  Cmax of AM1: 141.21 ± 30.64 µg/L
  Tmax of AM1: 6.83 ± 1.33 h
  Vz/F of AM1: 264.78 ± 145.01 L/kg
  t1/2z of AM1: 12.10 ± 9.00 h

## C=CC[C@@H]1/C=C(\C)C[C@H](C)C[C@H](OC)[C@H]2O[C@@](O)(C(=O)C(=O)N3CCCC[C@H]3C(=O)O[C@H](/C(C)=C/[C@@H]3CC[C@@H](O)[C@H](OC)C3)[C@H](C)[C@@H](O)CC1=O)[C@H](C)C[C@@H]2OC [tacrolimus, Tacrolimus]
[1]
  Inhibitory rate on the metabolism of CsA: greater than 80%

## COC(=O)C1=C(C)NC(C)=C(C(=O)OCC(C)C)C1c1ccccc1[N+](=O)[O-] (stereo not shown) [nisoldipine, Nisoldipine]
[1]
  Inhibitory effect on the metabolism of CsA (in words): almost completely blocked the metabolism of CsA
  Inhibitory rate on the metabolism of CsA: greater than 80%
[3]
  IC50: 16.2 ± 0.78 µM
[4]
  Inhibitory effect on the metabolism of CsA (in words): almost completely blocked the metabolism of CsA

## C[C@@H](c1nc(-c2ccc(C#N)cc2)cs1)[C@](O)(Cn1cncn1)c1cc(F)ccc1F [isavuconazole, Isavuconazole]
[1]
  Inhibitory rate on the metabolism of CsA: greater than 80%

## COCCOC(=O)C1=C(C)NC(C)=C(C(=O)OC(C)C)C1c1cccc([N+](=O)[O-])c1 (stereo not shown) [nimodipine, Nimodipine]
[1]
  Inhibitory effect on the metabolism of CsA (in words): almost completely blocked the metabolism of CsA

## CO[C@H]1C[C@@H]2CC[C@@H](C)[C@@](O)(O2)C(=O)C(=O)N2CCCC[C@H]2C(=O)O[C@H]([C@H](C)C[C@@H]2CC[C@@H](OCCO)[C@H](OC)C2)CC(=O)[C@H](C)/C=C(\C)[C@@H](O)[C@@H](OC)C(=O)[C@H](C)C[C@H](C)/C=C/C=C/C=C/1C [everolimus, Everolimus]
[1]
  Inhibitory rate on the metabolism of CsA: greater than 80%

## C[C@@H](c1ncncc1F)[C@](O)(Cn1cncn1)c1ccc(F)cc1F [voriconazole, Voriconazole]
[1]
  Inhibitory rate on the metabolism of CsA: greater than 80%

## CCOC(=O)C1=C(C)NC(C)=C(C(=O)OC)C1c1cccc(Cl)c1Cl (stereo not shown) [felodipine]
[1]
  Inhibitory effect on the metabolism of CsA (in words): almost completely blocked the metabolism of CsA

## OCCOc1ccc(/C(=C(/CCCl)c2ccccc2)c2ccccc2)cc1 [ospemifene]
[1]
  Inhibitory rate on the metabolism of CsA: greater than 80%

Reference: article PMC9852833, “Functional evaluation of cyclosporine metabolism by CYP3A4 variants and potential drug interactions” (Frontiers in Pharmacology, 2023)
